Reference: patent US20250197794A1, “MEMBRANE RUPTURE COMPOSITIONS AND METHODS OF MAKING AND USING SAME” (priority 2020, published 2025)

Experiments:
SF9 cells = assay: Cell lysis, percent cell viability by Vi-Cell (trypan blue exclusion); assay type: cell-based, insect; details: SF9, 1 hour incubation
Procedure: The cell rupture solution was tested both for HEK 293 and SF9 cell lines. The cell concentration was >5×10^6 cells/ml. A cell harvest in cell culture media was spiked with the concentrated stock of cell rupture solution to reach a final cell rupture solution concentration ranging from 0% to 0.5% and was incubated for about 5 minutes to about 1 hour at 15° C. to 30° C. The concentration of the stock solution could be 1-500-fold higher than the target concentration. After the incubation period, cell viability of cells was analyzed by a Vi-Cell reader.
SF9 cells for the study were grown in SF-900 II SFM (Invitrogen/Gibco 10902) media in a non-vented non-baffled shake flask. The incubator was set at 27° C. and 125 rpm.
For the cell lysis study, 2 mL of cells were added to each of 10×15 mL tubes under a sterile biosafety cabinet. Each tube was spiked with 0% (control, no detergent), 0.0025%, 0.005%, 0.0075%, 0.01%, 0.02%, 0.05%, 0.1%, 0.25%, and 0.5% of cell rupture solution using a concentrated stock. Cell counts and percent cell viability were determined at 15 min, 30 min, and 1 hour time points for each sample using the ViCell cell viability analyzer.
Cell viability was assessed by a Vi-Cell XR using trypan blue exclusion staining. […]

HEK 293 cells = details: HEK 293, 1 hour incubation
[1] = reference [6]; cited from earlier work

**Q.** Which results are given for Octoxynol-9 [Triton X-100]?
**A.** detergent concentration at which cell lysis was complete (SF9 cells): 0.05%; detergent concentration at which cell lysis was complete (HEK 293 cells): 0.05%; toxicity reported by research [1]: acute oral toxicity, eye damage, skin irritation, and chronic aquatic toxicity
